These results are taken from US20160222021A1, “ARYL ETHER-BASE KINASE INHIBITORS” (BRISTOL-MYERS SQUIBB COMPANY, priority 2013, published 2016).

The term IC50 denotes the point on the concentration scale where inhibition reaches its midpoint.

The target of the first experiment is T1, GST-Xa-hAAK1 (Homo sapiens, UniProt Q2M2I8).
T1 construct: made in house
T1 sequence (Q2M2I8 whole entry): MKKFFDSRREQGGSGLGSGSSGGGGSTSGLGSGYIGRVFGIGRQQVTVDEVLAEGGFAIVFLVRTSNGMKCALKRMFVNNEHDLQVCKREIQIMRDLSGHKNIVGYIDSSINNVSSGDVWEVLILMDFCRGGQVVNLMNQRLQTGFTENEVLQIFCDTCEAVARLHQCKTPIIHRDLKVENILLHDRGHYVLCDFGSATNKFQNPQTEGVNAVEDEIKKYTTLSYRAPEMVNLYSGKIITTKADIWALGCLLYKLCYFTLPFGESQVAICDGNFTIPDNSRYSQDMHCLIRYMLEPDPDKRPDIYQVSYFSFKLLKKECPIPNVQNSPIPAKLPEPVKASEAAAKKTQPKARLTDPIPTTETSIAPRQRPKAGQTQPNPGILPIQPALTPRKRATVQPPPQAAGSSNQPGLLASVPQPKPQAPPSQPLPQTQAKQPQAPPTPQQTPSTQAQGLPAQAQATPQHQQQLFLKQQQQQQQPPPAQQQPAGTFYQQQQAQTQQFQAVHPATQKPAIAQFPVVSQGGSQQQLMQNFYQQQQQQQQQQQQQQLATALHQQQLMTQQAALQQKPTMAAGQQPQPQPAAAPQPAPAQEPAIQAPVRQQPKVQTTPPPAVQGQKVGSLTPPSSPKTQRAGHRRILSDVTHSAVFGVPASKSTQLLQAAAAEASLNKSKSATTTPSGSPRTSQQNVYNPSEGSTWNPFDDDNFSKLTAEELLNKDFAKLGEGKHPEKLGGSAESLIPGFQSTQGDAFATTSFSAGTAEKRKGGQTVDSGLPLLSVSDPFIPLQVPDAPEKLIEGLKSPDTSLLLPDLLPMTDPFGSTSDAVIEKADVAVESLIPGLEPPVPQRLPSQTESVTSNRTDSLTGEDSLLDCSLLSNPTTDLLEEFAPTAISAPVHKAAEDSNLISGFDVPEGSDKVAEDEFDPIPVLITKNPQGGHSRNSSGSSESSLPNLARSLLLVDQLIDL
As to the kind of experiment: AAK1 Kinase Assay. It is filed as biochemical. The conditions noted are these: ATP 22 μM; IC50 ranges. As to the method: The assays were performed in U-bottom 384-well plates. The final assay volume was 30 μl prepared from 15 μl additions of enzyme and substrates (fluoresceinated peptide (5-FAM)-Aha-[…]-NH2 and ATP) and test compounds in assay buffer (10 mM Tris-HCL pH 7.4, 10 mM MgCl2, 0.01% Tween-20 and 1.0 mM DTT). The reactions were initiated by the combination of bacterially expressed, GST-Xa-hAAK1 with substrates and test compounds. The reactions were incubated at room temperature for 3 hours and terminated by adding 60 μl of 35 mM EDTA buffer to each sample. The reactions were analyzed on the Caliper LabChip 3000 (Caliper, Hopkinton, Mass.) by electrophoretic separation of the fluorescent substrate and phosphorylated product. […] The final concentration of reagents in the assays are ATP, 22 μM; (5-FAM)-Aha-[…]-NH2, 1.5 μM; GST-Xa-hAAK1, 3.5 nM; and DMSO, 1.6%. Dose response curves were generated to determine the concentration required inhibiting 50% of kinase activity (IC50). Compounds were dissolved at 10 mM in dimethylsulfoxide (DMSO) and evaluated at eleven concentrations. IC50 values were derived by non-linear regression analysis.
Take `CC(C)CC(C)(N)COc1ccc2c(c1)OCc1cnc(N)cc1-2` (racemic) [Example 68, 8-((2-amino-2,4-dimethylpentyl)oxy)-5H-chromeno[3,4-c]pyridin-2-amine]: the IC50 lay within 1 to 10 nM.
For the compound `COC(=O)Nc1cc2c(cn1)COc1c-2ccc(OCC(C)(N)CC(C)C)c1OC` (racemic) [Example 69, methyl (8-((2-amino-2,4-dimethylpentyl)oxy)-7-methoxy-5H-chromeno[3,4-c]pyridin-2-yl)carbamate], the IC50 was less than 1 nM.
On the same count and under the same terms, then `[2H]C([2H])(Oc1ccc2c(c1)OCc1cnc(NC(C)=O)cc1-2)C(C)(N)CC(C)C` (racemic) [Example 78, N-(8-((2-amino-1,1-deutero-2,4-dimethylpentyl)oxy)-5H-chromeno[3,4-c]pyridin-2-yl)acetamide], with 1 to 10 nM; and `COC(=O)Nc1cc2c(cn1)COc1c-2ccc(OCC(C)(N)CC(C)C)c1C#N` (racemic) [Example 79, methyl (8-((2-amino-2,4-dimethylpentyl)oxy)-7-cyano-5H-chromeno[3,4-c]pyridin-2-yl)carbamate], with less than 1 nM; and `[2H]C([2H])(Oc1ccc2c(c1C#N)OCc1cnc(NC(=O)OC)cc1-2)C(C)(N)CC(C)C` (racemic) [Example 94, methyl (8-((2-amino-1,1-deutero-2,4-dimethylpentyl)oxy)-7-cyano-5H-chromeno[3,4-c]pyridin-2-yl)carbamate], with less than 1 nM.
Regarding `[2H]C([2H])(Oc1ccc2c(c1)OCc1cnc(NC(=O)OCC)cc1-2)C(C)(N)CC(C)C` (racemic) [Example 96, ethyl (8-((2-amino-1,1-deutero-2,4-dimethylpentyl)oxy)-5H-chromeno[3,4-c]pyridin-2-yl)carbamate], the IC50 fell in the range of 1 to 10 nM.
As for `CC(C)C[C@H](N)COc1ccc2c(c1)OC(C1CC1)c1cnccc1-2` (single isomer, unassigned) [Example 8a], the IC50 was 100 to 1200 nM.
Consider `CC(C)C[C@@H](N)COc1ccc2c(c1)OC(C1CC1)c1cnccc1-2` (single isomer, unassigned) [Example 9a], for which the IC50 was in the range of 100 to 1200 nM.
The same measure, in the same setting: then `CC(C)C[C@@H](N)COc1ccc2c(c1)OC(C1CC1)c1cnccc1-2` (single isomer, unassigned) [Example 9b], with 100 to 1200 nM; and `CC(C)C[C@H](N)COc1cc2c(cc1Cl)-c1ccncc1[C@H](C(F)(F)F)O2` (single isomer, unassigned) [Example 27a], with 1 to 10 nM.
Still for that read-out and setting: then `CC(C)C[C@H](N)COc1ccc2c(c1)OC(C(F)(F)F)c1cnccc1-2` (single isomer, unassigned; diastereomer 2) [Example 53], with 10 to 100 nM.
Still for that read-out and setting: then `N[C@@H](COc1ccc2c(c1)OCc1cnccc1-2)Cc1ccccc1` [Example 2, (R)-1-(5H-chromeno[3,4-c]pyridin-8-yloxy)-3-phenylpropan-2-amine], with 100 to 1200 nM.
With `CC[C@@H](N)COc1ccc2c(c1)OCc1cnccc1-2` [Example 3, (R)-1-(5H-chromeno[3,4-c]pyridin-8-yloxy)butan-2-amine], the IC50 lay within 100 to 1200 nM.
The same measure, in the same setting: then `CC(C)C[C@@H](N)COc1ccc2c(c1)OC(C1CC1)c1cnccc1-2` (stereo partly shown) [Example 9], with 100 to 1200 nM.
For `CC(C)C[C@H](N)COc1ccc2c(c1)OC1(COC1)c1cnccc1-2` [Example 19, (S)-4-methyl-1-(spiro[chromeno[3,4-c]pyridine-5,3′-oxetan]-8-yloxy)pentan-2-amine], the IC50 fell in the range of 100 to 1200 nM.
As for `CC(C)C[C@H](N)COc1cc2oc(=O)c3cnccc3c2cc1Br` [Example 25, (S)-8-(2-amino-4-methylpentyloxy)-9-bromo-5H-chromeno[3,4-c]pyridin-5-one], the IC50 lay in the range of 1 to 10 nM.
The same measure, in the same setting: then `Cc1cc2c(cn1)COc1cc(OC[C@@H](N)CC(C)C)ccc1-2` [Example 39, (S)-4-methyl-1-((2-methyl-5H-chromeno[3,4-c]pyridin-8-yl)oxy)pentan-2-amine], with 100 to 1200 nM.
Consider `CC(=O)Nc1nccc2c1C(C)Oc1cc(OC[C@@H](N)CC(C)C)ccc1-2` (stereo partly drawn) [Example 47, N-(8-(((S)-2-amino-4-methylpentyl)oxy)-5-methyl-5H-chromeno[3,4-c]pyridin-4-yl)acetamide], for which the IC50 lay within 100 to 1200 nM.
With `CC(C)C[C@H](N)COc1ccc2c(c1)OC(C(F)(F)F)c1cnccc1-2` (stereo partly drawn) [Example 49, (2S)-4-methyl-1-((5-(trifluoromethyl)-5H-chromeno[3,4-c]pyridin-8-yl)oxy)pentan-2-amine], the IC50 lay within 10 to 100 nM.
On the same count and under the same terms, then `CC(C)C[C@H](N)COc1ccc2c(c1)OC(C(C)C)c1cnccc1-2` (stereo partly drawn) [Example 51, (2S)-1-((5-isopropyl-5H-chromeno[3,4-c]pyridin-8-yl)oxy)-4-methylpentan-2-amine], with 10 to 100 nM.
Still for that read-out and setting: then `CC(C)C[C@H](N)COc1ccc2c(c1)OC(C(C)C)c1cnccc1-2` (stereo partly drawn) [Example 55, (2S)-1-((5-isopropyl-5H-chromeno[3,4-c]pyridin-8-yl)oxy)-4-methylpentan-2-amine], with 10 to 100 nM; and `CCNc1cc2c(cn1)COc1cc(OC[C@@H](N)CC(C)C)ccc1-2` [Example 58, (S)-8-((2-amino-4-methylpentyl)oxy)-N-ethyl-5H-chromeno[3,4-c]pyridin-2-amine], with 10 to 100 nM; and `CC(C)C[C@H](N)COc1ccc2c(c1)OCc1cnc(NC(=O)C(C)C)cc1-2` [Example 61, (S)—N-(8-((2-amino-4-methylpentyl)oxy)-5H-chromeno[3,4-c]pyridin-2-yl)isobutyramide], with 10 to 100 nM.
The same measure, in the same setting: then `CC(=O)Nc1cc2c(cn1)COc1cc(OC[C@@H](N)CC(C)C)cc(F)c1-2` [Example 62, (S)—N-(8-((2-amino-4-methylpentyl)oxy)-10-fluoro-5H-chromeno[3,4-c]pyridin-2-yl)acetamide], with 1 to 10 nM; and `CC(C)C[C@H](N)COc1cc2c(cc1Cl)-c1cc(N)ncc1CO2` [Example 71, (S)-8-((2-amino-4-methylpentyl)oxy)-9-chloro-5H-chromeno[3,4-c]pyridin-2-amine], with 1 to 10 nM.
With `CC(C)C[C@H](N)COc1ccc2c(c1)OCc1cnc(NC(=O)c3cc(F)cc(F)c3)cc1-2` [Example 72, (S)—N-(8-((2-amino-4-methylpentyl)oxy)-5H-chromeno[3,4-c]pyridin-2-yl)-3,5-difluorobenzamide], the IC50 was in the range of 100 to 1200 nM.
Consider `COC(=O)Nc1cc2c(cn1)COc1c-2ccc(OC[C@@](C)(N)CC(C)C)c1C#N` [Example 80, (S)-methyl (8-((2-amino-2,4-dimethylpentyl)oxy)-7-cyano-5H-chromeno[3,4-c]pyridin-2-yl)carbamate], for which the IC50 is less than 1 nM.
On to `COC(=O)Nc1cc2c(cn1)COc1cc(OC[C@@](C)(N)CC(C)C)c(Cl)cc1-2` [Example 83, (S)-methyl (8-((2-amino-2,4-dimethylpentyl)oxy)-9-chloro-5H-chromeno[3,4-c]pyridin-2-yl)carbamate], for which the IC50 lay in the range of 1 to 10 nM.
On the same count and under the same terms, then `COC(=O)Nc1cc2c(cn1)COc1c-2ccc(OC[C@@H](N)CC(C)C)c1C#N` [Example 84, (S)-methyl (8-((2-amino-4-methylpentyl)oxy)-7-cyano-5H-chromeno[3,4-c]pyridin-2-yl)carbamate], with 1 to 10 nM; and `COc1c(OC[C@@](C)(N)CC(C)C)ccc2c1OCc1cnc(NC(C)=O)cc1-2` [Example 85, (S)—N-(8-((2-amino-2,4-dimethylpentyl)oxy)-7-methoxy-5H-chromeno[3,4-c]pyridin-2-yl)acetamide], with less than 1 nM.

The same experiment, now with this note: ATP 22 μM; numeric values.
For the compound `[2H]C([2H])(Oc1ccc2c(c1)OCc1cnc(NC(=O)OC)cc1-2)C(C)(N)CC(C)C` (racemic) [Example 75, methyl (8-((2-amino-1,1-deutero-2,4-dimethylpentyl)oxy)-5H-chromeno[3,4-c]pyridin-2-yl)carbamate], the IC50 was determined as 2.3 nM.
For the compound `CC(=O)Nc1cc2c(cn1)COc1cc(OC[C@@](C)(N)CC(C)C)ccc1-2` [Example 45, (S)—N-(8-((2-amino-2,4-dimethylpentyl)oxy)-5H-chromeno[3,4-c]pyridin-2-yl)acetamide], the half-inhibitory concentration (IC50) worked out at 0.87 nM.
Still for that read-out and setting: then `CC(=O)Nc1nccc2c1C(C1CC1)Oc1cc(OC[C@@H](N)CC(C)C)ccc1-2` (stereo partly drawn) [Example 48, N-(8-(((S)-2-amino-4-methylpentyl)oxy)-5-cyclopropyl-5H-chromeno[3,4-c]pyridin-4-yl)acetamide], with 1200 nM; and `CC(C)C[C@H](N)COc1ccc2c(c1)OC(C1CC1)c1c-2ccnc1N` (stereo partly drawn) [Example 50, 8-(((S)-2-amino-4-methylpentyl)oxy)-5-cyclopropyl-5H-chromeno[3,4-c]pyridin-4-amine], with 12 nM; and `CNc1nccc2c1COc1cc(OC[C@@H](N)CC(C)C)ccc1-2` [Example 54, (S)-8-((2-amino-4-methylpentyl)oxy)-N-methyl-5H-chromeno[3,4-c]pyridin-4-amine], with 305 nM.
The same measure, in the same setting: then `CC1Oc2cc(OC[C@@H](N)CC3CC3)ccc2-c2ccncc21` (stereo partly drawn) [Example 56, (2S)-1-cyclopropyl-3-((5-methyl-5H-chromeno[3,4-c]pyridin-8-yl)oxy)propan-2-amine], with 21 nM.
`COC(=O)Nc1cc2c(cn1)COc1c-2ccc(OC[C@@](C)(N)CC(C)C)c1OC` [Example 86, (S)-methyl (8-((2-amino-2,4-dimethylpentyl)oxy)-7-methoxy-5H-chromeno[3,4-c]pyridin-2-yl)carbamate]: the IC50 is 0.39 nM.
